Read-outs that look alike come from different tables or passages of the source.
Assays:
[1] = molecular target: T1, human κ-opioid receptor (KOR) (Homo sapiens, UniProt P41145); experiment: κ-opioid receptor agonistic effect (inhibition of adenylate cyclase, cAMP assay); type: cell-based
T1 construct: expressed in transfected cells
Experimental: The efficacy of the compounds of the invention as κ-opioid receptor agonists was determined by measuring the ability of the compounds of Examples to inhibit adenylate cyclase activity.
Cell culture: hamster ovary cells CHO stably expressing human κ-opioid receptor (KOR) gene were cultured in MEMα plus nucleosides medium (Invitrogen) containing 5% FBS.
Stimulation: the test compound was 4-fold diluted in a gradient manner to obtain 11 concentrations, and 100 nl of each was transferred to a 384-well plate, and then a stimulating solution (5 uL) containing NKH477 (Tocris) was added; the cells were digested, re-suspended, and counted; and then the cells (5 uL) were added to wells, mixed gently, and incubated at 37° C. for 30 min.
Detection: cAMP Assay Kit (Cisbio) was used, cAMP-D2 and Anti-cAMP-Cryptate were added separately, and the resultant mixture was incubated for 1 h at room temperature. The plate was read using envision (Perkin Elmer) and EC50 was obtained by means of fitting with a four-parameter equation.

[2] = molecular target: KOR (Homo sapiens, UniProt P41145); experiment: Opioid receptor selectivity, radioligand competition binding (3H-diprenophrine) on cell membranes
Experimental: (§1) The selectivity of the compounds of the invention for κ opioid receptors was determined by measuring the inhibitory effect of the compounds of Examples on the […] of KOR, MOR, and DOR.
(§2) The compounds of Examples at different concentrations were incubated with the cell membrane with high expression of KOR, MOR, DOR and the corresponding radioligand (KOR: 3H-diprenophrine; MOR: 3H-DAMGO; DOR: 3H-DADLE) for 1 h, the compounds of Examples competed with the radioligands for binding to KOR, MOR, DOR. After the incubation, Cell harvest was used to collect cell membranes onto a Unifilter-96 GF/C filter plate, and the unbound radioligands were washed away. The plate was placed in a 50-degree oven for 1 h, and finally the scintillation solution Microscint 20 cocktail was added and the isotope signal was detected by MicroBeta2 Reader.
(§3) According to the intensity of the isotope signal at different concentrations, the IC50 was calculated by means of fitting with a four-parameter equation, and the Ki value was calculated.
(§4) The Ki value was calculated according to the formula Ki=IC50/(1+[radioligand]/Kd), and Kd was the equilibrium dissociation constant of radioligand.

[3] = molecular target: DOR (Homo sapiens, UniProt P41143); experiment: Opioid receptor selectivity, radioligand competition binding (3H-DADLE) on cell membranes
Experimental: as §1, §2, §3, §4

[4] = Pharmacokinetic (PK) study in rats; type: in vivo; details: male SD rats, intravenous, 1 mg/kg; for AUC(0-t) / Cmax / Vd / half-life: rat, plasma
Experimental: The pharmacokinetic profile of the compounds of Examples was studied by intravenous administration of the compounds of Examples to male SD rats. The dose for IV administration was 1 mg/kg, and the solvent was 5% DMSO: 5% solutol: 90% physiological saline. After IV administration, blood samples were collected at different time points for PK study. Plasma were treated by protein precipitation and then analyzed by LC-MS/MS.
In LC-MS/MS, mass spectrum was API 5500, and liquid chromatography was Shimadzu LC-30AD system. The column used for the test groups of Compound 3 and Compound 4 was Thermo C18 column (4.6 mm×100 mm, 3 μm); for mobile phases, phase A was water+0.1% formic acid, and phase B was methanol; the flow rate was 0.8 mL/min, and the column temperature was 40° C. The column used for the test group of Compound 5 was Agela AQ C18 column (2.1 mm×50 mm, 1.9 μm); for mobile phases, phase A was water+0.05% formic acid+5 mM acetic acid ammonium, and phase B was methanol+0.05% formic acid; the flow rate was 0.6 mL/min, and the column temperature was 40° C. The ion source used was the ESI source in positive ion mode, and the scanning mode was Multiple Reaction Monitoring (MRM).

[5] = system: male ICR mice; experiment: Acetic acid-induced writhing test in mice; type: in vivo; set-up: ED50: unit not given here; details: for ED50: iv administration 15 min before 0.6% acetic acid ip, writhes counted within 15 min
Experimental: The analgesic effect of the compound of the invention was evaluated by measuring the ED50 of the compounds of Examples in the acetic acid-induced writhing test in mice.
The commercial glacial acetic acid solution was diluted with physiological saline to 0.6% glacial acetic acid solution. The male ICR mice were randomly separated into the drug group and the model group (to which physiological saline was administration). 15 minutes after iv administration, 0.6% acetic acid solution was intraperitoneally injected at 10 ml/kg, and the mice was immediately recorded with DV camera for 15 min. After the recording, the number of writhes of the mice within 15 min was counted from the video by blind method, the inhibition rate for the writhes was calculated according to Formula (I), and the ED50 of the compound was calculated according to Formula (II).
(I) The inhibition rate for the writhes was calculated by the formula: Inhibition rate (%)=(the number of writhes in a model group−the number of writhes in a drug group)/the number of writhes in a model group*100.
(II) The ED50 was calculated by the formula:
[formula] wherein Xm was the logarithm of the highest dose, d was the difference in the logarithm of two adjacent doses, p was the inhibition rate for each dose group, pm was the highest-dose inhibition rate, and pn was the lowest-dose inhibition rate.

[6] = molecular target: MOR (Homo sapiens, UniProt P35372); experiment: Opioid receptor selectivity, radioligand competition binding (3H-DAMGO) on cell membranes
Experimental: as §1, §2, §3, §4

[7] = CHO cells stably expressing human KOR, NKH477-stimulated cAMP, four-parameter fit, read-out: ED50 (the source's name)
[8] = Ki=IC50/(1+[radioligand]/Kd), read-out: KOR Ki
[9] = radioligand 3H-diprenophrine, 1 h incubation, read-out: KOR IC50
[10] = Ki=IC50/(1+[radioligand]/Kd), read-out: DOR Ki
[11] = radioligand 3H-DADLE, 1 h incubation, read-out: DOR IC50
[12] = Ki=IC50/(1+[radioligand]/Kd), read-out: MOR Ki
[13] = radioligand 3H-DAMGO, 1 h incubation, read-out: MOR IC50

Row | SMILES | EC50 [1, 7] [nM] | pharmacokinetic profile (in words) [4] | AUC(0-t) [4] [ng·h/mL] | Cmax [4] [ng/mL] | Vd [4] [L/kg] | half-life [4] [min] | ED50 [5] | also measured
1 | CC(C)C[C@@H](NC(=O)[C@@H](Cc1ccccc1)NC(=O)[C@H](N)Cc1ccccc1)C(=O)N[C@H](CCCCNC[C@@H](O)CO)C(=O)N1CCC(N)(C(=O)O)CC1 [Example 1, 4-amino-1-((R)-2-((R)-2-((R)-2-((R)-2-amino-3-phenylpropanamido)-3-phenylpropanamido)-4-methylpentanamido)-6-(((R)-2,3-dihydroxypropyl)amino)hexanoyl)piperidin-4-carboxylic acid] | 0.09 |  |  |  |  |  |  | 
2 | CC(C)C[C@@H](NC(=O)[C@@H](Cc1ccccc1)NC(=O)[C@H](N)Cc1ccccc1)C(=O)N[C@H](CCCCNC[C@H](O)CO)C(=O)N1CCC(N)(C(=O)O)CC1 [Example 2, 4-amino-1-((R)-2-((R)-2-((R)-2-((R)-2-amino-3-phenylpropanamido)-3-phenylpropanamido)-4-methylpentanamido)-6-(((S)-2,3-dihydroxypropyl)amino)hexanoyl)piperidin-4-carboxylic acid] | 0.08 |  |  |  |  |  |  | 
3 | CC(C)C[C@@H](NC(=O)[C@@H](Cc1ccccc1)NC(=O)[C@H](N)Cc1ccccc1)C(=O)N[C@H](CCCCNCCN)C(=O)N1CCC(N)(C(=O)O)CC1 [Example 3, 4-amino-1-((R)-2-((R)-2-((R)-2-((R)-2-amino-3-phenylpropanamido)-3-phenylpropanamido)-4-methylpentanamido)-6-((2-aminoethyl)amino)hexanoyl)piperidin-4-carboxylic acid] | 0.06 | good exposure amount and Cmax | 1790 | 2650 | 0.28 | 20.4 | 0.041 | Ki [2, 8]: < 0.01 nM; IC50 [2, 9]: < 0.03 nM; Ki [3, 10]: > 12000 nM; IC50 [3, 11]: > 20000 nM; Ki [6, 12]: > 7180 nM; IC50 [6, 13]: > 20000 nM
4 | CC(C)C[C@@H](NC(=O)[C@@H](Cc1ccccc1)NC(=O)[C@H](N)Cc1ccccc1)C(=O)N[C@H](CCCCNCCCN)C(=O)N1CCC(N)(C(=O)O)CC1 [Example 4, 4-amino-1-((R)-2-((R)-2-((R)-2-((R)-2-amino-3-phenylpropanamido)-3-phenylpropanamido)-4-methylpentanamido)-6-((3-aminopropyl)amino)hexanoyl)piperidin-4-carboxylic acid] | 0.07 | good exposure amount and Cmax | 2410 | 3590 | 0.74 | 73.2 | 0.029 | Ki [2, 8]: < 0.01 nM; IC50 [2, 9]: < 0.03 nM; Ki [3, 10]: > 12000 nM; IC50 [3, 11]: > 20000 nM; Ki [6, 12]: > 7180 nM; IC50 [6, 13]: > 20000 nM
5 | COCCOCCOCCOCCOCCOCCOCCNCCCC[C@@H](NC(=O)[C@@H](CC(C)C)NC(=O)[C@@H](Cc1ccccc1)NC(=O)[C@H](N)Cc1ccccc1)C(=O)N1CCC(N)(C(=O)O)CC1 [Example 6, 4-amino-1-((R)-28-((R)-2-((R)-2-((R)-2-amino-3-phenylpropanamido)-3-phenylpropanamido)-4-methylpentanamido)-2,5,8,11,14,17,20-heptaoxa-23-azanonacosan-29-oyl)piperidin-4-carboxylic acid] |  | good exposure amount and Cmax | 2180 | 3660 | 0.2 | 17.4 | 0.036 | IC50 [2]: 0.33 nM; Ki [2]: 0.11 nM; KOR selectivity (in words) ([2]; KOR versus MOR and DOR binding): excellent KOR selectivity; IC50 [3]: > 20000 nM; Ki [3]: > 12000 nM; EC50 [1]: 0.11 nM; analgesic effect (in words) ([5]; acetic acid-induced writhing, mice, iv): significant analgesic effect; IC50 [6]: > 20000 nM; Ki [6]: > 7180 nM
6 | CC(C)C[C@@H](NC(=O)[C@@H](Cc1ccccc1)NC(=O)[C@H](N)Cc1ccccc1)C(=O)N[C@H](CCCCNC(CO)CO)C(=O)N1CCC(N)(C(=O)O)CC1 [Example 8, 4-amino-1-((R)-2-((R)-2-((R)-2-((R)-2-amino-3-phenylpropanamido)-3-phenylpropanamido)-4-methylpentanamido)-6-((1,3-dihydroxypropan-2-yl)amino)hexanoyl)piperidin-4-carboxylic acid] | 0.03 |  |  |  |  |  |  | 
7 | COCCOCCN(CCCC[C@@H](NC(=O)[C@@H](CC(C)C)NC(=O)[C@@H](Cc1ccccc1)NC(=O)[C@H](N)Cc1ccccc1)C(=O)N1CCC(N)(C(=O)O)CC1)CCOCCOC [Example 15, 4-amino-1-((R)-2-((R)-2-((R)-2-((R)-2-amino-3-phenylpropanamido)-3-phenylpropanamido)-4-methylpentanamido)-6-(di(2-(2-methoxyethoxy)ethyl)amino)hexanoyl)piperidin-4-carboxylic acid] | 0.06 |  |  |  |  |  |  | 
8 | CC(C)C[C@@H](NC(=O)[C@@H](Cc1ccccc1)NC(=O)[C@H](N)Cc1ccccc1)C(=O)N[C@H](CCCCNCC(=O)O)C(=O)N1CCC(N)(C(=O)O)CC1 [Example 17, 4-amino-1-((R)-2-((R)-2-((R)-2-((R)-2-amino-3-phenylpropanamido)-3-phenylpropanamido)-4-methylpentanamido)-6-((carboxymethyl)amino)hexanoyl)piperidin-4-carboxylic acid] | 0.42 |  |  |  |  |  |  | 
9 | COCCOCCNCCCC[C@@H](NC(=O)[C@@H](CC(C)C)NC(=O)[C@@H](Cc1ccccc1)NC(=O)[C@H](N)Cc1ccccc1)C(=O)N1CCC2(CC1)NC(=O)NC2=O [Example 23, 8-((R)-2-((R)-2-((R)-2-((R)-2-amino-3-phenylpropanamido)-3-phenylpropanamido)-4-methylpentanamido)-6-(2-(methoxyethoxy)ethylamino)hexanoyl)-1,3,8-triaza-spiro[4.5]decane-2,4-dione] | 0.016 |  |  |  |  |  |  | 
10 | COCCOCCNCCCC[C@@H](NC(=O)[C@@H](CC(C)C)NC(=O)[C@@H](Cc1ccccc1)NC(=O)[C@H](N)Cc1ccccc1)C(=O)N1C2CC1CN(CC(=O)O)C2 [Example 24, 2-(6-((R)-2-((R)-2-((R)-2-((R)-2-amino-3-phenylpropanamido)-3-phenylpropanamido)-4-methylpentanamido)-6-((2-(2-methoxyethoxy)ethyl)amino)hexanoyl)-3,6-diazabicyclo[3.1.1]heptan-3-yl)acetic acid] | 0.005 |  |  |  |  |  |  | 
